Assay results taken from patent publication EP4707280A1, “1,4-CINEOLE DERIVATIVE AND INTERMEDIATE THEREOF, HERBICIDE CONTAINING SAID DERIVATIVE AS ACTIVE INGREDIENT, METHOD FOR USING HERBICIDE, AND METHOD FOR PREPARING AGROCHEMICAL COMPOSITION” (HOKKO CHEMICAL INDUSTRY CO., LTD., priority 2023, dated 2024).

Assays:
Type in all cases: in vivo
Chenopodium album [1] = assay: Test Example 7: herbicidal effect test by soil application in upland field (low dose); conditions: 7.5 g per 10 ares, sprayed one day after sowing, 14 days after application, read-out: weed inhibition rate
Method in brief: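 Low-dose soil treatment at 7.5 g a.i. per 10 a, applied as a diluted emulsifiable concentrate sprayed onto the soil surface one day after sowing in upland alluvial loam. Duplicate pots; percent weed inhibition is read 14 days after application.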

Lindernia pyxidaria [2] = assay: Test Example 5: herbicidal effect test by soil application in paddy rice (low dose); conditions: 336 h, 7.5 g per 10 ares, applied immediately after sowing, flooded pots, 14 days after application, read-out: weed inhibition rate
Method in brief: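 Pots of puddled, fertilized paddy soil receive 30 seeds per species at 0–1 cm depth and are flooded to about 3 cm. The diluted emulsifiable concentrate is then dropped onto the water, delivering 7.5 g active ingredient per 10 ares. Greenhouse grown; herbicidal effect scored 14 days later, two replicates.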

Lindernia pyxidaria [3] = assay: Test Example 1: herbicidal effect test by soil application in paddy rice; conditions: 336 h, 120 g active ingredient per 10 ares, applied immediately after sowing, flooded pots, 14 days after application, read-out: weed inhibition rate
Method in brief: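 Inhibition rate (%) read 14 days after treatment, duplicate pots. Water-diluted emulsifiable concentrate was applied by dropper at 120 g active ingredient/10 ares right after sowing. Seeds (30 per species, 0–1 cm deep) went into puddled paddy soil kept flooded at about 3 cm in a greenhouse.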

Chenopodium album [4] = assay: Test Example 4: herbicidal effect test by stem and leaf treatment in upland field; conditions: 120 g per 10 ares, sprayed seven days after sowing, upland soil, 14 days after application, read-out: weed inhibition rate
Amaranthus viridis [5] = assay: as above; conditions: 120 g per 10 ares, sprayed seven days after sowing, upland soil, 14 days after application, read-out: weed inhibition rate
Method in brief: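 Read-out: weed inhibition rate (%), calculated 14 days post-application, each concentration group in duplicate. Treatment was a spray of diluted emulsifiable concentrate (100 liters per 10 ares; 120 g a.i. per 10 ares) onto pots sown 7 days earlier in alluvial loam.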

Amaranthus viridis [6] = assay: Test Example 7: herbicidal effect test by soil application in upland field (low dose); conditions: 7.5 g per 10 ares, sprayed one day after sowing, upland soil, 14 days after application, read-out: weed inhibition rate
Lindernia pyxidaria [7] = assay: Test Example 6: herbicidal effect test by application during growth period of paddy rice (low dose); conditions: 7.5 g per 10 ares, applied seven days after sowing, flooded pots, 14 days after application, read-out: weed inhibition rate
Method in brief: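 Emulsifiable concentrate, water-diluted, dropped onto flooded paddy pots 7 days post-sowing at 7.5 g active ingredient/10 a. Greenhouse-grown weeds; percent inhibition scored at day 14 after treatment.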

Chenopodium album [8] = assay: Test Example 8: herbicidal effect test by stem and leaf treatment in upland field (low dose); conditions: 7.5 g per 10 ares, sprayed seven days after sowing, upland soil, 14 days after application, read-out: weed inhibition rate
Method in brief: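 Post-emergence spray, 7 d after sowing: EC diluted in water, 100 L/10 a, 7.5 g a.i./10 a. Read-out: inhibition rate (%) at 14 d; n=2 per concentration.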

[9] = system: Echinochloa crus-galli var. formosensis at the three-leaf stage; assay: Comparative Example: herbicidal effect test by application during growth period of paddy rice (three-leaf stage, Table 7); conditions: 504 h, active ingredient 7.5 g per 10 ares, emulsifiable concentrate applied by dropper to flooded pots, 21 days after chemical application, triplicate, read-out: Weed inhibition rate (%)
Protocol: As an example, the herbicidal effect on Echinochloa crus-galli var. formosensis at the three-leaf stage was confirmed by the following method, and the results are specifically shown in Table 7 as a comparative example.
Wagner pots with an area of […] were filled with paddy soil, followed by addition of water and incorporation of chemical fertilizer (N:P:K = 16:16:16), after which puddling was performed. After that, 30 seeds of Echinochloa crus-galli var. formosensis were sown at a depth of 0 cm to 1 cm. Immediately after sowing, the pots were flooded and a water depth of approximately 3 cm was maintained. Subsequent management was conducted in a glass greenhouse. When Echinochloa crus-galli var. formosensis reached the three-leaf stage, an emulsifiable concentrate prepared according to Formulation Example 5 using the compound shown below was diluted with water, and a specified amount of the diluted solution was applied by dropper. The amount of the active ingredient to be applied was equivalent to 7.5 g per 10 ares. The test was conducted in triplicate for each chemical concentration group, and the weed inhibition rate (%) was determined 21 days after chemical application using the following formula (Math. 1).

Structure (SMILES)	inhibition at 75 g/ha (Chenopodium album [1])	inhibition at 75 g/ha (Lindernia pyxidaria [2])	pest or weed control at 1200 g/ha (Lindernia pyxidaria [3])	inhibition at 1200 g/ha (Chenopodium album [4])	inhibition at 1200 g/ha (Amaranthus viridis [5])	inhibition at 75 g/ha (Amaranthus viridis [6])	inhibition at 75 g/ha (Lindernia pyxidaria [7])	inhibition at 75 g/ha (Chenopodium album [8])	inhibition at 75 g/ha [9]
CC(C)[C@]12C[C@@H](OCc3ccccc3F)[C@](C)(CC1OCC1CC1)O2 (mixture of isomers) [1-921, (1S,2R,4R,SR)-5-(cyclopropylmethoxy)-2-[(2-fluorophenyl)methoxy]-1-methyl-4-isopropyl-7-oxabicyclo[2.2.1]heptane]	≥ 80%	≥ 80%	≥ 80%	≥ 80%	≥ 80%	≥ 80%	≥ 80%	≥ 80%	–
CC(C)[C@]12C[C@@H](OCc3c(F)cccc3F)[C@](C)(C[C@@H]1F)O2 [1-7, (1S,2R,4R,5S)-2-((2,6-difluorobenzyl)oxy)-5-fluoro-4-isopropyl-1-methyl-7-oxabicyclo[2.2.1]heptane]	≥ 80%	–	≥ 80%	≥ 80%	–	≥ 80%	–	–	100%
C=CCO[C@@H]1C[C@]2(C)O[C@@]1(C(C)C)C[C@H]2OCc1ccccc1F [1-930, (1S,2R,4R,5R)-2-[(2-fluorophenyl)methoxy]-1-methyl-4-isopropyl-5-prop-2-enoxy-7-oxabicyclo[2.2.1]heptane]	≥ 80%	≥ 80%	≥ 80%	≥ 80%	≥ 80%	≥ 80%	≥ 80%	≥ 80%	–
C#CCO[C@@H]1C[C@]2(C)O[C@@]1(C(C)C)C[C@H]2OCc1ccccc1F [1-931, (1S,2R,4R,5R)-2-[(2-fluorophenyl)methoxy]-1-methyl-4-isopropyl-5-prop-2-ynoxy-7-oxabicyclo[2.2.1]heptane]	–	≥ 80%	≥ 80%	≥ 80%	≥ 80%	≥ 80%	≥ 80%	–	–
CC(C)[C@]12C[C@@H](OCc3c(F)cccc3F)[C@](C)(CC1=O)O2 [2-20, (1R,4S,5R)-5-((2,6-difluorobenzyl)oxy)-1-isopropyl-4-methyl-7-oxabicyclo[2.2.1]heptan-2-one]	–	≥ 80%	–	–	≥ 80%	–	≥ 80%	–	–
C=C1C[C@]2(C)O[C@@]1(C(C)C)C[C@H]2OCc1ccccc1C [2-72, (1R,4S,5R)-1-isopropyl-4-methyl-5-((2-methylbenzyl)oxy)-2-methylene-7-oxabicyclo[2.2.1]heptane]	≥ 80%	–	≥ 80%	≥ 80%	–	≥ 80%	–	≥ 80%	–
C=C1C[C@]2(C)O[C@@]1(C(C)C)C[C@H]2OCc1ccccc1F [2-88, (1R,4S,5R)-5-((2-fluorobenzyl)oxy)-1-isopropyl-4-methyl-2-methylene-7-oxabicyclo[2.2.1]heptane]	≥ 80%	–	≥ 80%	≥ 80%	–	≥ 80%	–	≥ 80%	80%
